Data on four molecules can be found in article PMC5564600 (Oncotarget, 2017).

Holding throughout (test): biochemical
What all share (assay type): binding

Assay [1] concerns the target T1, panel of 442 kinases (Homo sapiens, UniProt Q52WX2).
T1 construct: purchased Ambit Biosciences (scanMAXX KINOMEscan)
To be noted: kinase SBK1; for remaining activity at 1 µM: read-out: SBK1 (% of control at 1 µM).

The target in assay [2] is T2, panel of 442 kinases (Homo sapiens, UniProt P32298).
T2 construct: purchased Ambit Biosciences (scanMAXX KINOMEscan)
T2 sequence (P32298 whole entry): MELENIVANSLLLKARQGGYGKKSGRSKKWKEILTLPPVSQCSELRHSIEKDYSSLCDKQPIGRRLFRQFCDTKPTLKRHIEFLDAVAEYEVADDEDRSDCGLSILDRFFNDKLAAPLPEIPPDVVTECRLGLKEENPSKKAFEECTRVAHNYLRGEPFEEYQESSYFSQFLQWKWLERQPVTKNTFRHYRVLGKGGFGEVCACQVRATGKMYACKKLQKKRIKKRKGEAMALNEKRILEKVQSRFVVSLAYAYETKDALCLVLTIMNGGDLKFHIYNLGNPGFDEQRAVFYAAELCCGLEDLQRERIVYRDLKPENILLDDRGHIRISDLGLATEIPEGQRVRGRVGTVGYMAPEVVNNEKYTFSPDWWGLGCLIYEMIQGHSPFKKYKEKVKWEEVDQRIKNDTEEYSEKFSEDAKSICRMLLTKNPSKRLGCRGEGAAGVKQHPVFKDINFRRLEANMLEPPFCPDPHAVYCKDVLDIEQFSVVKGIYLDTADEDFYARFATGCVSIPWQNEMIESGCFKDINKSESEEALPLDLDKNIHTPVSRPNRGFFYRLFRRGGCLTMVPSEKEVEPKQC
The following applies: kinase GRK4; for remaining activity at 1 µM: read-out: % of control at 1 µM.

The target in assay [3] is T3, panel of 442 kinases (Homo sapiens, UniProt Q8TD19).
T3 construct: purchased Ambit Biosciences (scanMAXX KINOMEscan)
T3 sequence (Q8TD19 1-979): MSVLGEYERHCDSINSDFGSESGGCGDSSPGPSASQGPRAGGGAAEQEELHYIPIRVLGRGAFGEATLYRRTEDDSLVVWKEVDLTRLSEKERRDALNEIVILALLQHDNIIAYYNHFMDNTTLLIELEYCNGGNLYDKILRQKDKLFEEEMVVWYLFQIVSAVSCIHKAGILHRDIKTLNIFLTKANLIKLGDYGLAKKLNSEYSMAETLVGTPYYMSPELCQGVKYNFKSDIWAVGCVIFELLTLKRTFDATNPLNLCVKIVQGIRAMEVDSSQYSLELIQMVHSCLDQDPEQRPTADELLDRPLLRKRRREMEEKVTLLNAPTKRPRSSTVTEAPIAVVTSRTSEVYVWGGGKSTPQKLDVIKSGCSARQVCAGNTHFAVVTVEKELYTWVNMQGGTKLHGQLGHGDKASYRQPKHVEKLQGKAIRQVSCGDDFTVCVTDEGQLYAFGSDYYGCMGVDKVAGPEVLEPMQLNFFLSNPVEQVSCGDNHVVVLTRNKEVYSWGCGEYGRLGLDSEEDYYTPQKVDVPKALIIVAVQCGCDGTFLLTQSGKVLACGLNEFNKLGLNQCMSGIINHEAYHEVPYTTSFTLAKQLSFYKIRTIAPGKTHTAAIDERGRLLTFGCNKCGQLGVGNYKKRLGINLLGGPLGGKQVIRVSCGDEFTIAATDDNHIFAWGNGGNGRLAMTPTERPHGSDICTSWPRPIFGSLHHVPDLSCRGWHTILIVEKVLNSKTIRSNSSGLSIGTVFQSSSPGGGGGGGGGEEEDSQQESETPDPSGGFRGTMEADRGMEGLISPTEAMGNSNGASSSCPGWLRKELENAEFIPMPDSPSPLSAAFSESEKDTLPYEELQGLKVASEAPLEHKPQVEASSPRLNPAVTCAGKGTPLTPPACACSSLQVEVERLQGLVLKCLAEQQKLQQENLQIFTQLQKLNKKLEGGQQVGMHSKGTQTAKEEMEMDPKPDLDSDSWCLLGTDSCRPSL
The following applies: kinase NEK9; for remaining activity at 1 µM: read-out: % of control at 1 µM.

In assay [4] the target is T4, panel of 442 kinases (Homo sapiens, UniProt Q9BZL6).
T4 construct: purchased Ambit Biosciences (scanMAXX KINOMEscan)
T4 sequence (Q9BZL6 1-878): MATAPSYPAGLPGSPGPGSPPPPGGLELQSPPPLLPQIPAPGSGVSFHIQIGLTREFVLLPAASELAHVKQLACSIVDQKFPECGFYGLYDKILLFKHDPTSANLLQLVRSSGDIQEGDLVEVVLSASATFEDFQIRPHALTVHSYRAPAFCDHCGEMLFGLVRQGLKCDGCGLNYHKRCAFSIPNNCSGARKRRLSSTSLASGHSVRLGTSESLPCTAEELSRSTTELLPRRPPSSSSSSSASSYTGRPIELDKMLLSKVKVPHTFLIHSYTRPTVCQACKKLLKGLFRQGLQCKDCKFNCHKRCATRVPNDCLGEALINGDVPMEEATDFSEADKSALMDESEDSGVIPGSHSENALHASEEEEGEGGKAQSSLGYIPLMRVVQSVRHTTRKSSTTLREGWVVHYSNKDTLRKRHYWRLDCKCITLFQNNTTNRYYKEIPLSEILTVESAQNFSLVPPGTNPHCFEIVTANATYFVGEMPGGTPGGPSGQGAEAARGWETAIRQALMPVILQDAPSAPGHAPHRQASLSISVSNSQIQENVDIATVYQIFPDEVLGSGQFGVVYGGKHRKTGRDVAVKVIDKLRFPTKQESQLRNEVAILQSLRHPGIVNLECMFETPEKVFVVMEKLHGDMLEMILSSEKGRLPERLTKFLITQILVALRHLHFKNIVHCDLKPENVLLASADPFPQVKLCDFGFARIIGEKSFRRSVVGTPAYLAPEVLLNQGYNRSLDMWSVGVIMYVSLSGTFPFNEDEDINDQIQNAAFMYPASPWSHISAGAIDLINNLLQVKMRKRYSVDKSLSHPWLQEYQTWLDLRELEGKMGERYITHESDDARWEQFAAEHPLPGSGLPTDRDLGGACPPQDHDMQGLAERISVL
To be noted: kinase PRKD2; for remaining activity at 1 µM: read-out: PRKD2 (% of control at 1 µM).

The target in assay [5] is T5, panel of 442 kinases (Homo sapiens, UniProt Q13177).
T5 construct: purchased Ambit Biosciences (scanMAXX KINOMEscan)
T5 sequence (Q13177 whole entry): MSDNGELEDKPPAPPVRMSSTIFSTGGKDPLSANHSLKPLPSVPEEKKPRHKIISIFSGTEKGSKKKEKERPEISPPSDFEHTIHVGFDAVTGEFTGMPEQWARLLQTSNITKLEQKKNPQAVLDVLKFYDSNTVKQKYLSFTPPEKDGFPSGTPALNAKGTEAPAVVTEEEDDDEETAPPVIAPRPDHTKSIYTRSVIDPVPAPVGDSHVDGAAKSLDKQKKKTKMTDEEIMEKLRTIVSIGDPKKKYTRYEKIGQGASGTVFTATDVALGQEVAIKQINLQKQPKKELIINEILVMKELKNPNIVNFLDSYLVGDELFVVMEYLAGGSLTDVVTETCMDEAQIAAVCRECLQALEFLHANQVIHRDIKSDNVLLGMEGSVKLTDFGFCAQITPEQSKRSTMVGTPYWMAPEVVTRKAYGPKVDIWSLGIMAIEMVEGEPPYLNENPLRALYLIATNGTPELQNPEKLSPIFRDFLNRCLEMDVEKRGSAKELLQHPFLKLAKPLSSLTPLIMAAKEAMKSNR
The following applies: kinase PAK2; for remaining activity at 1 µM: read-out: % of control at 1 µM.

In assay [6] the target is T6, panel of 442 kinases (Homo sapiens, UniProt Q00537).
T6 construct: purchased Ambit Biosciences (scanMAXX KINOMEscan)
T6 sequence (Q00537 whole entry): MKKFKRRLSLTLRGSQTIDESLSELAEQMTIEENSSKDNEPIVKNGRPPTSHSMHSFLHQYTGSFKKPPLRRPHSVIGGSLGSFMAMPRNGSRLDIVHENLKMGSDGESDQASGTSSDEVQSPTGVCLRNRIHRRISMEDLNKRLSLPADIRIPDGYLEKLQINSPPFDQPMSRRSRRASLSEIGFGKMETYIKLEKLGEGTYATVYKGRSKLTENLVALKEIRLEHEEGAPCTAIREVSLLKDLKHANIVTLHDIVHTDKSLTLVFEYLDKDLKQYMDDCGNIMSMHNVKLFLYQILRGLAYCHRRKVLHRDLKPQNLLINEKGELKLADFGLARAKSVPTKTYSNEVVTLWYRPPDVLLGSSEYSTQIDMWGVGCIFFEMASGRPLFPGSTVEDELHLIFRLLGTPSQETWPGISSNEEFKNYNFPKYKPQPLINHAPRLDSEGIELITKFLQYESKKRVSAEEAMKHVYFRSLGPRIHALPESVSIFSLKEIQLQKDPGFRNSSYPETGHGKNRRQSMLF
To be noted: kinase PCTK2; for remaining activity at 1 µM: read-out: % of control at 1 µM.

In assay [7] the target is T7, panel of 442 kinases (Homo sapiens, UniProt Q99640).
T7 construct: purchased Ambit Biosciences (scanMAXX KINOMEscan)
T7 sequence (Q99640 1-499): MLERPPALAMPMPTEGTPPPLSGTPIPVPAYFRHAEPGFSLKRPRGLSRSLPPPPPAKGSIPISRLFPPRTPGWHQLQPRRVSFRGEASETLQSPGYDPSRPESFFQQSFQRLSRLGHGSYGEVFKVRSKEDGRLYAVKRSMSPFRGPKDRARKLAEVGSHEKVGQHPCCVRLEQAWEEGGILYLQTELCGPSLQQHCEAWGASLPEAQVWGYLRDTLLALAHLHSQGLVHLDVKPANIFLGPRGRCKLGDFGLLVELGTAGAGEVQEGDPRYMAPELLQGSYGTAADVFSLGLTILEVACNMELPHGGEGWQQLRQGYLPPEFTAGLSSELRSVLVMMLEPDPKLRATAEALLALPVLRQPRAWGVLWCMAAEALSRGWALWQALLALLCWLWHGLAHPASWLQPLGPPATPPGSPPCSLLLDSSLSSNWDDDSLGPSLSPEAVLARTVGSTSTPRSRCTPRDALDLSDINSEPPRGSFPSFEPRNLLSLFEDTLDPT
To be noted: kinase PKMYT1; for remaining activity at 1 µM: read-out: PKMYT1 (% of control at 1 µM).

The target of assay [8] is T8, panel of 442 kinases (Homo sapiens, UniProt P54756).
T8 construct: purchased Ambit Biosciences (scanMAXX KINOMEscan)
T8 sequence (P54756 25-1037): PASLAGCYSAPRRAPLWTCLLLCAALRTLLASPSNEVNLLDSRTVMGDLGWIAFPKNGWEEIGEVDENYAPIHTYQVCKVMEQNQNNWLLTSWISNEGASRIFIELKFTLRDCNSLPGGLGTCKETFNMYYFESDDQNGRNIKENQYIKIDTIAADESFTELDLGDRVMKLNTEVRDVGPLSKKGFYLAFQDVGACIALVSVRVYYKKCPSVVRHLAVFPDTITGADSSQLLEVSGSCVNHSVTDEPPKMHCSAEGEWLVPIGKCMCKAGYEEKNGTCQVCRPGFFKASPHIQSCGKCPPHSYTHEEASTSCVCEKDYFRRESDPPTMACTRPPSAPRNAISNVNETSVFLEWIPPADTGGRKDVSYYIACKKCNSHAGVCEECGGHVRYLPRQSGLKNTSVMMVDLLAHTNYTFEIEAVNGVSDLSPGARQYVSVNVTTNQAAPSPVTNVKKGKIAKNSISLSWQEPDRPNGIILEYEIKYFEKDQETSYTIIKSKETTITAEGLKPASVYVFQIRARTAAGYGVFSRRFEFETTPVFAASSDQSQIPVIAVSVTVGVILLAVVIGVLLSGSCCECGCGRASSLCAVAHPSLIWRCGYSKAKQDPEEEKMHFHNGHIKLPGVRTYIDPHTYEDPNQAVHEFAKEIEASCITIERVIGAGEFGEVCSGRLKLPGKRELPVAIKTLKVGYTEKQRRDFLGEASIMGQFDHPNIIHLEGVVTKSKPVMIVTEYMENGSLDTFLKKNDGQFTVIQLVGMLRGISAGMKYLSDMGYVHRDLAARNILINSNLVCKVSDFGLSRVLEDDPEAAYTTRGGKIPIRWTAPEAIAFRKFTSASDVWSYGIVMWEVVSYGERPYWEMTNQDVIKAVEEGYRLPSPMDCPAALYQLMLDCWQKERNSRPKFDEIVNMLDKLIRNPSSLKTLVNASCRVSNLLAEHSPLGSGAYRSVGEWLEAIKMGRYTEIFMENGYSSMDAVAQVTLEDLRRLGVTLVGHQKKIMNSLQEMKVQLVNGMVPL
To be noted: EPHA5; for remaining activity at 1 µM: read-out: % of control at 1 µM.

Setting [9] is: 10 µM, read-out: % of control at 10 µM.

T1 sequence (Q52WX2 whole entry): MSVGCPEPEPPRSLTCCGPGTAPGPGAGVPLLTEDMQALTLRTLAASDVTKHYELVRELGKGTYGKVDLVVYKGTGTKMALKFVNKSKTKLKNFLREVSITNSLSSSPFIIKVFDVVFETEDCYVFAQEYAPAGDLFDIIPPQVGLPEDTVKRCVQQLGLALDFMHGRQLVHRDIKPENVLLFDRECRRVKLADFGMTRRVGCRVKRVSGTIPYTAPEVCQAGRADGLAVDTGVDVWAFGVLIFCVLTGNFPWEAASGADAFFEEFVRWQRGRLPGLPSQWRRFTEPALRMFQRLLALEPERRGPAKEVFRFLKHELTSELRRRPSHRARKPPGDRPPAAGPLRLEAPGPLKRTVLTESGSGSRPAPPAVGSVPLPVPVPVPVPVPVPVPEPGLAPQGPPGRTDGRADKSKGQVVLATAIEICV

Turning to `Nc1cc(C(F)(F)F)c(-c2cc(N3CCOCC3)nc(N3CCOCC3)n2)cn1` [Buparlisib], the remaining activity at 1 µM came out at 94% on panel of 442 kinases [1]; 100% at panel of 442 kinases [2]; 94% at panel of 442 kinases [3]; 100% on panel of 442 kinases [4]; 68% on panel of 442 kinases [5]; 87% at panel of 442 kinases [6]. In addition, the remaining activity at 1 µM at panel of 442 kinases [7] and on panel of 442 kinases [8] was 100% throughout. In addition, the remaining activity at 10 µM was determined as 100% on panel of 442 kinases [1] (10 µM, read-out: SBK1 (% of control at 10 µM)); 100% on panel of 442 kinases [2] (setting [9]); 100% at panel of 442 kinases [3] (setting [9]); 100% on panel of 442 kinases [4] (10 µM, read-out: PRKD2 (% of control at 10 µM)); 83% at panel of 442 kinases [5] (setting [9]); 69% on panel of 442 kinases [6] (setting [9]). In addition, the remaining activity at 10 µM at panel of 442 kinases [7] (10 µM, read-out: PKMYT1 (% of control at 10 µM)) came to 100%; at panel of 442 kinases [8] (setting [9]), 100%.
Take `Cn1c(=O)n(-c2ccc(C(C)(C)C#N)cc2)c2c3cc(-c4cnc5ccccc5c4)ccc3ncc21` [Dactolisib, 2-methyl-2-[4-(3-methyl-2-oxo-8-quinolin-3-yl-2,3-dihydroimidazo[4,5-c]quinolin-1-yl)-phenyl] propionitrile]: the remaining activity at 1 µM at panel of 442 kinases [1] worked out at 92%; at panel of 442 kinases [2], 97%; at panel of 442 kinases [3] it was 96%; at panel of 442 kinases [4] it was 93%; on panel of 442 kinases [6], 100%; on panel of 442 kinases [7], 75%.
For `FC(F)c1nc2ccccc2n1-c1nc(N2CCOCC2)nc(N2CCOCC2)n1` [ZSTK474, 2-(difluoromethyl)-1-[4,6-di(4-morpholinyl)-1,3,5-triazin-2-yl]-1H-benzimidazole], the remaining activity at 1 µM is 100% on panel of 442 kinases [1]; 100% on panel of 442 kinases [2]; 84% at panel of 442 kinases [3]; 93% at panel of 442 kinases [4]; 100% at panel of 442 kinases [5]; 100% at panel of 442 kinases [6]. Further, the remaining activity at 1 µM turned out to be 72% at panel of 442 kinases [7] and 100% at panel of 442 kinases [8].
With `COc1ncc(-c2ccc3nccc(-c4ccnnc4)c3c2)cc1NS(=O)(=O)c1ccc(F)cc1F` [Omipalisib], the remaining activity at 1 µM on panel of 442 kinases [1] was 100%; at panel of 442 kinases [2], 100%; on panel of 442 kinases [3], 100%; on panel of 442 kinases [4], 100%; on panel of 442 kinases [5], 57%; at panel of 442 kinases [6] it was 100%. Besides, the figures for the remaining activity at 1 µM on panel of 442 kinases [7] and at panel of 442 kinases [8] were 81% and 100%, respectively.
